In article PMC2801581 (Journal of medicinal chemistry, 2009):
Read-outs that look alike come from different tables or passages of the source.

Tests used:
[1] = target: T1, LYP (Homo sapiens, UniProt Q9Y2R2); test: LYP inhibition assay with fluorogenic substrates; type: biochemical; details: for IC50: pH 6.5
T1 sequence (Q9Y2R2 2-309): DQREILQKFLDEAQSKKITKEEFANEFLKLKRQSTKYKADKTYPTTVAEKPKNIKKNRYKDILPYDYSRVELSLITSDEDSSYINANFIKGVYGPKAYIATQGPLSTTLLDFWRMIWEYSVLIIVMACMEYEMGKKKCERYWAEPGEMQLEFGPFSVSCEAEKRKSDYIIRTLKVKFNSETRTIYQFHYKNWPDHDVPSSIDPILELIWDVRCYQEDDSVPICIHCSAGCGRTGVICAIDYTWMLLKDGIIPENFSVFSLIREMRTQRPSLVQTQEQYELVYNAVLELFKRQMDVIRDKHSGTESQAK

[2] = target: T2, HePTP (Homo sapiens, UniProt P35236); test: HePTP counterscreen; type: biochemical; details: read-out: IC50 HePTP (DiFMUP)
T2 sequence (P35236 65-360): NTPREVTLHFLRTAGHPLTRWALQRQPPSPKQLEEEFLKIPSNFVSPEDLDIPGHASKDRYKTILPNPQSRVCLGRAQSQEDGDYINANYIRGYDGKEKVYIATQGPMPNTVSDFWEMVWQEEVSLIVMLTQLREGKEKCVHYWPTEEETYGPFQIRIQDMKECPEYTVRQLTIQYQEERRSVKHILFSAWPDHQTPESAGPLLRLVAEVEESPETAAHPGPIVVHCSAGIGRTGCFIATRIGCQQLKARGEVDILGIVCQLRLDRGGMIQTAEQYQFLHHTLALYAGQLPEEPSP

[3] = target: T3, CD45 (Homo sapiens, UniProt P08575); test: Intracellular CD45 inhibition in JTAg cells, anti-pLck; type: cell-based
T3 sequence (P08575 26-1306): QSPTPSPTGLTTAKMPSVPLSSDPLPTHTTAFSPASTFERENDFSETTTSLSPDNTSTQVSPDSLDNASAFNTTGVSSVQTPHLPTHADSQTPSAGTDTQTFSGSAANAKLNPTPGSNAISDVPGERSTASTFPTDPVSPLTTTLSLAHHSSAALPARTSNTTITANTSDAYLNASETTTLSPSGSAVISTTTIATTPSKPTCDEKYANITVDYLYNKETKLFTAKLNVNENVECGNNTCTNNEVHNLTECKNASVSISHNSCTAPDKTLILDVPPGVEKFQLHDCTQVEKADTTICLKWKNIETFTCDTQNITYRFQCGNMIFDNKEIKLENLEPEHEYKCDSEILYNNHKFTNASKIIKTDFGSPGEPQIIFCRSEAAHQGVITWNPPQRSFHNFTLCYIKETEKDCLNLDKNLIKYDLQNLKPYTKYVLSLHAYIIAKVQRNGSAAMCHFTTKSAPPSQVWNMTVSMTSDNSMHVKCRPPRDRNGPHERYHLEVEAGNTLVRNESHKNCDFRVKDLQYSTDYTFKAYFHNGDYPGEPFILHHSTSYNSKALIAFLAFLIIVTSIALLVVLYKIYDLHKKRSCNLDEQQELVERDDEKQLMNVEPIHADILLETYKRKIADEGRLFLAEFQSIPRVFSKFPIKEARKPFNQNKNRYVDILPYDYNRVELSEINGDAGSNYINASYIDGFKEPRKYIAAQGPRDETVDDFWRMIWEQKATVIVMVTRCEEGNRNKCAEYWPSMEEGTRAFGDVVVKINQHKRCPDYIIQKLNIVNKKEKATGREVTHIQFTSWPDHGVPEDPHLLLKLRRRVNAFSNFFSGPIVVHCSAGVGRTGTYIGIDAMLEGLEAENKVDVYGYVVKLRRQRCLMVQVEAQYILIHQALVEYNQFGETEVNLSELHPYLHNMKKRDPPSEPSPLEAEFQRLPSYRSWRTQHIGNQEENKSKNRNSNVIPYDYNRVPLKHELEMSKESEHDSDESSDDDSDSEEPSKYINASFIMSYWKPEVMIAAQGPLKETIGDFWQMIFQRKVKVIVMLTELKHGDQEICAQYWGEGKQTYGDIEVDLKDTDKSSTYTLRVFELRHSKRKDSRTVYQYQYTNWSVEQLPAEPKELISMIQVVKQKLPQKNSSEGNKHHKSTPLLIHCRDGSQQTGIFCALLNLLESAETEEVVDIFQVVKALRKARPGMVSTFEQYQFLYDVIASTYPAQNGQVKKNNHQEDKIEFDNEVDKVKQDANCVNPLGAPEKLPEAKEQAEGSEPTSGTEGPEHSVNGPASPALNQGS

[4] = test system: LYP
[5] = test system: CD45
[6] = target: T4, CD45 (Homo sapiens, UniProt P08575); test: CD45 counterscreen; type: biochemical; details: read-out: IC50 CD45 (DiFMUP)
T4 sequence (P08575 653-912 limits assumed): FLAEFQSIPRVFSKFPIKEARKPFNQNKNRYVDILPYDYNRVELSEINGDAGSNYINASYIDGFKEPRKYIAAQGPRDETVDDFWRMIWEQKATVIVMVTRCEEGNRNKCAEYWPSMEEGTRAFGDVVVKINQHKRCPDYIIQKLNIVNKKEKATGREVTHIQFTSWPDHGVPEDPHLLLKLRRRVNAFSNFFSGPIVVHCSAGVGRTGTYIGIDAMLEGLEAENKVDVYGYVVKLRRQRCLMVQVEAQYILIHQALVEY

[7] = test system: LYP; test: Intracellular LYP inhibition in JTAg cells, anti-pLck; type: cell-based, human
[8] = target: T5, PTP-PEST (Homo sapiens, UniProt Q05209); test: PTP-PEST inhibition assay with fluorogenic substrates; type: biochemical; details: pH 6.5
T5 sequence (Q05209 2-323): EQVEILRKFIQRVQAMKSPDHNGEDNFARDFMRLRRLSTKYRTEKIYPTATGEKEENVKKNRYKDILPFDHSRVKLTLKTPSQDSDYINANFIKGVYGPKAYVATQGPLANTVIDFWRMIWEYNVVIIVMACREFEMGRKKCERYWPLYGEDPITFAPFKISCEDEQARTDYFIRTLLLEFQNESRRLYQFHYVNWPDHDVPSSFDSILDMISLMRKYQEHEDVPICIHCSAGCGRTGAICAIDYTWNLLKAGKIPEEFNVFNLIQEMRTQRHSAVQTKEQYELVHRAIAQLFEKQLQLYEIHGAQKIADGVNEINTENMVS

[Cl][Au][PH](c1ccccc1)(c1ccccc1)c1ccccn1 [Compound 17, Diphenyl-2-pyridylphosphine-Au(I)-Cl]
LYP versus PTP-PEST inhibition in comparative library screen [1]: more potent inhibitors of LYP than PTP-PEST regardless of the substrate used
selectivity for LYP over PTP-PEST in dose-response screens [1]: selective for LYP over the ~ 70% identical PTP-PEST
IC50 ([1]; read-out: IC50 LYP (DiFMUP)): 5 ± 0.2 µM
IC50 ([1]; read-out: IC50 LYP (peptide 1)): 1.5 ± 0.3 µM
IC50 [2]: 35 ± 2 µM
phosphorylation of Lck at Y505 (CD45 activity in cells) [3]: no change in phosphorylation levels at position Y505
LYP activity in primary mouse thymocytes (pLck Tyr394) [4]: appears to inhibit LYP activity
CD45 activity in primary mouse thymocytes (pLck Tyr505) [5]: not CD45 activity
IC50 [6]: > 150 µM
phosphorylation of Lck at Y394 (LYP activity in cells) [7]: increase in phosphorylation at Y394
IC50 ([8]; read-out: IC50 PEST (DiFMUP)): 76 ± 3 µM
IC50 ([8]; read-out: IC50 PEST (peptide 1)): 43 ± 3 µM
